The values that follow come from PMC8537218, “Discovery of a Novel Class of Norovirus Inhibitors with High Barrier of Resistance” (Pharmaceuticals, 2021).

Structures are written as SMILES. “And” between values parts separate entries of the source, which are not always exact repeats. Equal entries are not always repeated. “Also recorded” adds a separate entry of the source. Where two headings read alike, the source gives them in different places.

Data set [1] concerns Murine norovirus type 1, strain CW1. The data set can be described thus: MNV-induced CPE reduction assay (MTS read-out) in RAW 264.7 cells. Format: cell-based. The settings on record: MNV CW1, RAW 264.7 cells, read-out: MNV EC50 ± SD. As for the experimental part:
Norovirus: The experiment was performed as described earlier. In short, RAW 264.7 cells (1 × 10^4 cells/well) were infected with MNV.CW1 in the presence of a dilution series of compounds. Antiviral activity and cytotoxicity were determined using a colometric assay using 3-(4,5-dimethylthiazol-2-yl)-5-(3-carboxymethoxyphenyl)-2-(4-sulfophenyl)-2H-tetrazolium (MTS). The 50% effective concentration (EC50) was defined as the compound concentration that protected 50% of the cells from CPE. The cell viability % was calculated as (ODtreated/ODCC) […] and the 50% cytotoxic concentration (CC50) was defined as the compound concentration that reduces the number of viable cells by 50%.

Data set [2] has as its system HuNoV GI.1 replicon (Norwalk replicon). The data set can be described thus: HuNoV GI.1 replicon assay in HG23 cells (RT-qPCR). The format is cell-based, Human norovirus. On the procedure: HuNoV GI.1 replicon: The experiment was performed as described earlier with minor modifications. In short, HG23 cells (7.5 × 10^2 cells/well) were seeded into the wells of a 96-well plate without G418 (Geneticin Selective Antibiotic). After 24 h of incubation, serial dilutions of compounds were added. Cells were further incubated for 72 h, then cells were collected for RNA load quantification by RT-qPCR. To determine relative levels of Norwalk virus replicon RNA, β-actin was used as a normalizer and ratios were calculated as previously described.

The subject of data set [3] is MNV. The data set can be described thus: MNV virus yield assay, viral RNA by RT-qPCR. The format is cell-based, Murine norovirus. Conditions: viral RNA levels by RT-qPCR. On the procedure: The supernatants of treated or untreated infected cells were harvested. The viral RNA was isolated from supernatant using the NucleoSpin RNA Virus Kit (Macherey–Nagel), according to the manufacturer’s protocol and was quantified by RT-qPCR. A one-step RT-qPCR was performed in a reaction mixture of 20 μL containing 10 μL reaction mix from the iTaq Universal Probes One-Step Kit (Bio-Rad), 0.5 μL reverse transcriptase, 4 μL template RNA, primers, and probe.

In data set [4] the test system is MNV. The data set can be described thus: Time-of-drug-addition assay (TOA) in MNV-infected RAW 264.7 cells. The format is cell-based, Murine norovirus. As for the experimental part: RAW 264.7 cells (4 × 10^5 cells/mL) were infected with MNV (MOI of 1). After 1 h at 4 °C, cells were washed with cold (4 °C) DMEM to remove unbound viruses. Cells were incubated at 37 °C to start the infection. To study the replication kinetics of MNV supernatant and cells were harvested, from untreated cultures, every 2 h until 24 h post-infection (pi) and viral RNA was quantified by RT-qPCR. In parallel, another set of infected cultures were treated with compound. The compound was added at 2 h intervals and cultures were further incubated until 24 h pi, supernatant and cells were collected separately for determination of the viral RNA by RT-qPCR. The isolation of the extracellular MNV RNA from cell culture supernatant was done by the NucleoSpin RNA Virus Kit (Macherey–Nagel), and the intracellular RNA was extracted from cells by the RNeasy kit (Qiagen).

For another data set, the target named is MNV RdRp (Norovirus, UniProt Q80J95). The data set can be described thus: In vitro enzymatic inhibition assay with MNV RdRp. Format: biochemical, Murine norovirus. Conditions: 3.4 µM MNV RdRp, poly(U) template, 100 µM ATP, compound 0 to 100 µM. As for the experimental part:
Compound 6 was tested to determine its effects on the polymerase activity. The formation of dsRNA, from a single-stranded poly(U) template (Sigma-Aldrich, 10 µg) and 100 µM ATP, was followed for 1 h at 30 °C on a TECAN Infinite 200 PRO microplate reader, measuring the growth of PicoGreen fluorescence (Ex/Em = 485/530 nm) after the addition of 3.4 µM MNV RdRp and of increasing amounts of compound 6 (from 0 to 100 µM), in a reaction mixture containing 20 mM Tris/HCl (pH 7.5), 25 mM NaCl, 0,3 mM MnCl2, 5 mM MgCl2, 1 mM DTT, 2 U RiboLock Ribonuclease inhibitor (Life technologies). The final fluorescence values were calculated as the average of four independent experiments. Measurement of the activity (i.e., linear slope of fluorescence increase in time) vs. compound 6 concentration was used to estimate the IC50 value of the compound with the program GraFit5 (Erithacus software).

Data set [5] concerns compound 6res MNV variants. The data set can be described thus: Antiviral assay on selected compound 6res MNV variants in RAW 264.7 cells. The format is cell-based, Murine norovirus. On the procedure: RAW 264.7 cells (1 × 10^4 cells/well) were seeded into the wells of 96-well plate and were infected with MNV.CW1 in the presence of a dilution series of compounds. When CPE was visible in the virus control (no compound), all the wells were scored for visible CPE. Virus was harvested from the wells in which CPE was observed under the highest compound pressure. The resistant virus was then diluted to 1:5 and used to infect a new 96-well plate under the same conditions to continue. […] MNV^res viruses were analyzed by deep sequencing by the group of Prof. Matthijnssens as described previously. The assembled sequence of the untreated MNV, that was passaged in parallel, was used as reference to align the MNV variants that were under compound pressure.
(§1) The assessment of the antiviral activity of compounds on resistant viruses was performed similarly as the regular antiviral assay on MNV. First, the titer of the resistant viruses was determined by endpoint titration. A concentration of 30× TCID50 was used for each virus in the antiviral assays. RAW 264.7 cells (1 × 10^4 cells/well) were seeded in the presence of a dilution series of compounds and infected. Antiviral activity was determined using the MTS method. The 50% effective concentration (EC50) was defined as the compound concentration that protected 50% of the cells from CPE.

For data set [6], the system named is MNV.CW3/S131T and MNV.CW3/Y154F. The data set can be described thus: Antiviral assay on reverse-engineered MNV.CW3 mutant viruses (S131T, Y154F). The settings on record: single mutations S131T or Y154F in MNV backbone. The format is cell-based, Murine norovirus. As for the experimental part: The desired mutations were introduced into the MNV.CW3 cDNA clones using the QuikChange II XL mutagenesis kit (Agilent) according to the manufacturer’s instructions. The presence of the desired mutation in the produced construct was confirmed by PCR and sequencing was done by Macrogen Inc. Sequences were analyzed and mutations were detected using the Geneious software.
The MNV.CW3 mutant viral stocks were obtained by transfecting the mutated plasmid pMNV CW3 (kindly provided by Prof. Wobus, University of Michigan) in Huh 7 Lunet cells expressing the MNV receptor CD300lf (kindly provided by Prof. Taube, University of Lübeck). Huh-7 CD300lf cells were cultured under selective pressure of G418. The Huh-7 CD300lf cells were seeded in 6-well plates at a density of 2 × 10^5 cells/mL in 2.5 mL of complete media. After 24 h, the cells were transfected with 2.5 μg of pMNV CW3 plasmid DNA using the TransIT mRNA Transfection Kit (Mirus Bio Corporation) according to the manufacturer’s protocol. Red fluorescent protein (RFP) was used as a positive control for transfection. Transfected cells were incubated for 48 h, cells underwent two freeze thaw cycles and the virus was harvested from the supernatants after centrifugation (10 min, 1000× g) and stored at −80 °C. Virus stocks were passaged for three times on BV-2 cells and followed by two consecutive passages on RAW 264.7 cells. Viral titers were determined by serial dilutions on RAW 264.7 cells seeded in 96-well plates.
as §1

Chain of MNV RdRp (Q80J95 1178-1687): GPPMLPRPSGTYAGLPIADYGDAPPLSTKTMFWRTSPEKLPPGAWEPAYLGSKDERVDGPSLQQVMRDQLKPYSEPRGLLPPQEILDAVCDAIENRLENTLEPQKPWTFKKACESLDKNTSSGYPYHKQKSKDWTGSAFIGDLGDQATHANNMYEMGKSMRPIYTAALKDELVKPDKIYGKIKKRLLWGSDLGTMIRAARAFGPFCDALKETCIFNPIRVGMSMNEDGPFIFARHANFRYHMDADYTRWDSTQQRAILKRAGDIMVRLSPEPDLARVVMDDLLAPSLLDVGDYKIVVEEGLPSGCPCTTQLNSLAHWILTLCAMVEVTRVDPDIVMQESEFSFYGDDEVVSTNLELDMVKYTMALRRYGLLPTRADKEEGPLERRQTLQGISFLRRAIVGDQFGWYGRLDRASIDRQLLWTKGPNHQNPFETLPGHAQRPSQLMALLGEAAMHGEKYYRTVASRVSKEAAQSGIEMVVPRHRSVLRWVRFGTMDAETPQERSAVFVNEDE

As usually defined, the EC50 is the concentration needed to bring the measured effect to its halfway point. For orientation: melting point means the temperature of the solid-liquid transition. `Cc1cc(C)cc(S(=O)(=O)c2c(C(=O)NCc3ccc(CO)cc3)[nH]c3ccc(Cl)cc23)c1` [compound 6, 5-Chloro-3-((3,5-dimethylphenyl)sulfonyl)-N-(4-(hydroxymethyl)benzyl)-1H-indole-2-carboxamide] had a melting point of 124 to 126 °C. In addition, the EC50 in data set [1] (RAW264.7, concentration inhibiting norovirus induced cell death (CPE) by 50%) was 200 ± 100 nM. For the same molecule, in data set [1] (concentration inhibiting norovirus induced cell death (CPE) by 50%), the EC50 was determined as 160 ± 60 nM. Further, the EC50 in data set [2] (Norovirus, HG23, 72 h, read-out: HuNoV Replicon EC50 ± SD (µM), Norwalk replicon (human GI.1), HG23 cells, 72 h, replicon RNA by RT-qPCR) came to 1.24 µM. Further, in data set [2] (Norwalk replicon (human GI.1), HG23 cells, 72 h, replicon RNA by RT-qPCR, read-out: HuNoV Replicon EC50 ± SD), the EC50 is 1.2 µM and ~1.7 µM. The “adverse effects on the host cells” value in data set [2] (host cells of HuNoV GI.1 replicon assay) is recorded as “without adverse effects on the host cells”. For the same molecule, the EC50 in data set [2] (read-out: HuNoV Replicon EC50 ± SD, Norwalk replicon (human GI.1), HG23 cells, 72 h, replicon RNA by RT-qPCR) is 1.27 ± 0.76 µM. In the data set with MNV [3], this molecule displayed an EC50 of 210 ± 30 nM. Besides, the “time of addition after which the antiviral effect was lost” value in the data set with MNV [4] (MNV MOI 1, RAW 264.7 cells, compound added at 2 h intervals) is 6–8 h pi. In the data set with MNV [4] (time-of-addition experiment), the “step of the MNV replication cycle at which the compound acts” value is recorded as “onset of the viral genome replication”. Moreover, on MNV RdRp, the “direct inhibition of the norovirus polymerase (competition with natural substrate)” value is recorded as “no direct competition; also recorded: could not directly inhibit the active site of the enzyme”. Further, the “shift in EC50” value in data set [5] (mutants 1 and 3 together) is 6–8 fold. For the same molecule, the “shift in EC50 values” in data set [5] (resistant variant mutant 1 (first value), after 30 passages) is reported as 8.6 fold. The “shift in EC50 values” in data set [5] (resistant variant mutant 3, after 30 passages) was found to be 6.2 fold. Further, the “shift in EC50 / sensitivity of mutant viruses” value in data set [6] is reported as “no shift in EC50”.
